Values of other authors as cited in patent US20080160086A1, “Delivery Systems For Calcium” (Scepter Holdings, Inc., priority 2004, published 2008).

Conditions: in humans; U.S. Pat. No. 6,582,722

bioavailability: high bioavailability
Substance: calcium picolinate [calcium picolinate chelate]
